Consider one compound from publication PMC6981274, “Structure and mechanism of a Type III CRISPR defence DNA nuclease activated by cyclic oligoadenylate” (Nature Communications, 2020).

The assay deals with T1, Can1 (CRISPR ancillary nuclease 1; TTHB155) (Thermus thermophilus, UniProt Q53W14).
T1 construct: full length 636 aa plus C-terminal Leu-Glu; synthetic gene, E. coli C43 (DE3) (SeMet protein in B834), N-terminal His tag cut with TEV; monomer
T1 sequence (Q53W14 1-636): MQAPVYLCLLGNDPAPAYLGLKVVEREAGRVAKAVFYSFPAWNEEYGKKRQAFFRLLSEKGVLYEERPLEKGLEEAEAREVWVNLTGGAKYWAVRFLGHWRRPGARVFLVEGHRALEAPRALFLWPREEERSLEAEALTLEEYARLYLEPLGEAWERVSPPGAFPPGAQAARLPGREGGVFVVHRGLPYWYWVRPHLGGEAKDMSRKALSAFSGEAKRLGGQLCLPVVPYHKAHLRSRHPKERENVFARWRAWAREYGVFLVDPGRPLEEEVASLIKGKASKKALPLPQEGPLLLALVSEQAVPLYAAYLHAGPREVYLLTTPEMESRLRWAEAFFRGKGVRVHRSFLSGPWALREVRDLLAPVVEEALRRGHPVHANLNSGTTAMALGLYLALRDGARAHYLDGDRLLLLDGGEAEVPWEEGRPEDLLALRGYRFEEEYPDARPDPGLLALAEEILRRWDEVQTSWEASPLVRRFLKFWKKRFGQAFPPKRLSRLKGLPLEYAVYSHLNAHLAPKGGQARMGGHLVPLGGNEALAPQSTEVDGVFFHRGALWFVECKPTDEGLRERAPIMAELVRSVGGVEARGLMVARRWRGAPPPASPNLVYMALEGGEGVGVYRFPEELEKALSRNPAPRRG
Put plainly: X-ray crystal structure ([…] A); also EMSA with […]-labelled cA4, SAXS and nuclease activation. The settings on record: SeMet protein, 1:2 molar ratio with cA4, pH 6.5; site between the two CARF domains; activator. The class given is binding. For orientation: In EMSA bound probe runs differently from free probe, usually more slowly.

Regarding `Nc1ncnc2c1ncn2[C@@H]1O[C@@H]2COP(=O)(O)O[C@H]3[C@@H](O)[C@H](n4cnc5c(N)ncnc54)O[C@@H]3COP(=O)(O)O[C@H]3[C@@H](O)[C@H](n4cnc5c(N)ncnc54)O[C@@H]3COP(=O)(O)O[C@H]3[C@@H](O)[C@H](n4cnc5c(N)ncnc54)O[C@@H]3COP(=O)(O)O[C@H]2[C@H]1O` [cA4], the “X-ray crystal structure (1.83 A); also EMSA with 32P-labelled cA4, SAXS and nucl” value is on record as “A molecule of cA4 sits at the interface”.
